Test results as given in US20120039813A1, “INTRINSICALLY COLORED, LUMINESCENT SILK FIBROIN AND A METHOD OF PRODUCING THE SAME” (priority 2009, published 2012).
“Also recorded” adds a separate entry of the source.

Experiments:
silkworm [1] = test: Uptake of dyes into the silkworm and the silk fibroin after feeding dye-modified feed; type: in vivo; conditions: for Uptake of dye in worm / Uptake of dye in fibroin: dye fed to silkworm in modified feed; for Uptake of dye in fibroin: silk fibroin
From the text: The modified feed was then fed to silkworms starting on the third day of fifth instar. The silk gland, obtained through dissection, also absorbed the dye and became colored. At day 8-9 of fifth instar, the silkworms started producing intrinsically colored and fluorescent silk cocoon as shown in FIG. 3. […]

physchem = test: physchem
From the text: (§1) FIG. 12 depicts the quantity of various dyes in sericin and fibroin per gram of raw silk as a function of their n-octanol/water partition coefficient (log p).
(§2) FIG. 12 summarizes the amounts of various dyes distributed in silk's fibroin and sericin as a function of log P, a measure of hydrophobicity.

silkworm [2] = test: Quantity of various dyes in sericin, fibroin and gland content of dye-fed silkworms
From the text: as §1, §2

[3] = other dye molecules apart from the rhodamine series, feeding method

In the case of CN(C)c1ccc2cc3ccc(N(C)C)cc3nc2c1 [Acridine orange, acridine orange], the “Uptake into silk gland and silk” value (silkworm [1]; [3]) is reported as “efficient uptake”, the logP (physchem) is reported as 1.8 and the “Amount of dye present in silk (sericin and fibroin) and silkworm” value (from here on “Amount of dye present in silk”) (silkworm [2]; in vivo) is reported as “very low concentration in silk”. The “Concentration in gland content” value (silkworm [2]; in vivo) was “very low”.
With O=S1(=O)OC(c2cc(Br)c(O)c(Br)c2)(c2cc(Br)c(O)c(Br)c2)c2ccccc21 [Bromophenol blue] the “Uptake into silk gland and silk” value (silkworm [1]; [3]) was “did not display significant uptake”.
With O=C1OC2(c3ccc(O)cc3Oc3cc(O)ccc32)c2ccccc21 [Fluorescein, fluorescein] the “Uptake into silk gland and silk” value (silkworm [1]; [3]) was “did not display significant uptake”, the logP (physchem) was -0.79 and the “Amount of dye present in silk” value (silkworm [2]; in vivo) was “negligible presence in silk and in silkworm”.
With O=C(O)c1ccccc1C1=c2cc3c4c(c2Oc2c1cc1c5c2CCCN5CCC1)CCC[N+]=4CCC3.[Cl-] [Rhodamine 101, rhodamine 101] the “Uptake of dye in worm” value (silkworm [1]) was “yes”, the “Uptake of dye in fibroin” value (silkworm [1]) was “yes” and the “log P (n-octanol/water partition coefficient)” value (physchem) was 2.19. For the same compound, the “Amount of dye present in silk” value (silkworm [2]; FIG. 12, result in words) was “much higher concentration” and the “Distribution of dye between silk sericin and fibroin” value (silkworm [2]; FIG. 12, result in words) was “majority residing in silk fibroin rather than sericin”.
For Cl.N=c1ccc2c(-c3ccccc3C(=O)O)c3ccc(N)cc3oc-2c1 [Rhodamine 110, rhodamine 110], the “log P (n-octanol/water partition coefficient)” value (physchem) was 1.17 and the “Amount of dye present in silk” value (silkworm [2]; FIG. 12, result in words) was “substantial amounts in both sericin and fibroin; also recorded: lower uptake”.
For CCN(CC)c1ccc2c(c1)Oc1cc(N(CC)CC)ccc1C21OC(=O)c2ccccc21 [Rhodamine B base, rhodamine B base], the “Uptake of dye in worm” value (silkworm [1]) was “yes” and the “Uptake of dye in fibroin” value (silkworm [1]) was “yes”.
In the case of CCN(CC)c1ccc2c(-c3ccccc3C(=O)O)c3ccc(=[N+](CC)CC)cc-3oc2c1.[Cl-] [Rhodamine B, rhodamine B], the “Uptake of dye in worm” value (silkworm [1]) is reported as “yes”, the “Uptake of dye in fibroin” value (silkworm [1]) is reported as “yes” and the “log P (n-octanol/water partition coefficient)” value (physchem; measure of hydrophobicity) is reported as 2.43. For the same compound, the “Amount of dye present in silk” value (silkworm [2]; FIG. 12, result in words) was “much higher concentration”, the “Distribution of dye between silk sericin and fibroin” value (silkworm [2]; FIG. 12, result in words) was “majority residing in silk fibroin rather than sericin” and the “Concentration in gland content” value (silkworm [2]; in vivo) was ~1000 µM.
With O=S(=O)([O-])c1cc(S(=O)(=O)O)ccc1C1=c2cc3c4c(c2Oc2c1cc1c5c2CCCN5CCC1)CCC[N+]=4CCC3 [sulforhodamine 101] the “log P (n-octanol/water partition coefficient)” value (physchem) was −0.69 and the “Amount of dye present in silk” value (silkworm [2]; in vivo) was “negligible presence in silk and in silkworm”.
For Alcian blue, the “Uptake into silk gland and silk” value (silkworm [1]; in vivo) was “did not display significant uptake”.
For rhodamine 116, the “log P (n-octanol/water partition coefficient)” value (physchem; measure of hydrophobicity) was 0.64.
For rhodamine 123, the “Uptake of dye in worm” value (silkworm [1]) was “no” and the “Uptake of dye in fibroin” value (silkworm [1]) was “no”.
